{"source": "patent US6737383B1", "about": "“Herbicidal oxadiazolidines” (priority 1999, dated 2004)", "key": {"Johnson grass": {"tested_on": "Johnson grass", "experiment": "Test D Johnson grass", "assay_type": "in vivo, Sorghum halepense", "conditions": "Preemergence, 0 to 100 scale", "outline": "(§1)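 Greenhouse pots, seeds in sandy loam; compounds formulated in non-phytotoxic solvent with surfactant; preemergence treatments went on the soil surface within one day of planting. Injury rated visually 14 to 21 days after application on a 0 (none) to 100 (complete control) scale.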"}, "Alexandergrass": {"tested_on": "Alexandergrass", "experiment": "Test D Alexandergrass", "assay_type": "in vivo, Brachiaria plantaginea", "conditions": "Preemergence, 0 to 100 scale", "outline": "as §1"}, "guineagrass": {"tested_on": "guineagrass", "experiment": "Test D guineagrass", "assay_type": "in vivo, Panicum maximum", "conditions": "Preemergence, 0 to 100 scale", "outline": "as §1"}, "goosegrass": {"tested_on": "goosegrass", "experiment": "Test D goosegrass", "assay_type": "in vivo, Eleusine indica", "conditions": "Preemergence, 0 to 100 scale", "outline": "as §1"}, "surinam grass": {"tested_on": "surinam grass", "experiment": "Test D surinam grass", "assay_type": "in vivo, Brachiaria decumbens", "conditions": "Preemergence, 0 to 100 scale", "outline": "as §1"}, "Spanishneedles": {"tested_on": "Spanishneedles", "experiment": "Test D Spanishneedles", "assay_type": "in vivo, Bidens bipinnata", "conditions": "Preemergence, 0 to 100 scale", "outline": "as §1"}, "large crabgrass": {"tested_on": "large crabgrass", "experiment": "Test D large crabgrass", "assay_type": "in vivo, Digitaria sanguinalis", "conditions": "Preemergence, 0 to 100 scale", "outline": "as §1"}, "common groundsel": {"tested_on": "common groundsel", "experiment": "Test D common groundsel", "assay_type": "in vivo, Senecio vulgaris", "conditions": "Preemergence, 0 to 100 scale", "outline": "as §1"}, "tall mallow": {"tested_on": "tall mallow", "experiment": "Test D tall mallow", "assay_type": "in vivo, Malva sylvestris", "conditions": "Preemergence, 0 to 100 scale", "outline": "as §1"}, "bermuda-grass": {"tested_on": "bermuda-grass", "experiment": "Test D bermudagrass", "assay_type": "in vivo, Cynodon dactylon", "conditions": "Preemergence, 0 to 100 scale", "outline": "as §1"}, "purple nutsedge": {"tested_on": "purple nutsedge", "experiment": "Test D purple nutsedge", "assay_type": "in vivo, Cyperus rotundus", "conditions": "Preemergence, 0 to 100 scale", "outline": "as §1"}, "common pursiane": {"tested_on": "common pursiane", "experiment": "Test D common purslane", "assay_type": "in vivo, Portulaca oleracea", "outline": "as §1"}, "dallisgrass": {"tested_on": "dallisgrass", "experiment": "Test D dallisgrass", "assay_type": "in vivo, Paspalum dilatatum", "conditions": "Preemergence, 0 to 100 scale", "outline": "as §1"}, "sandbur": {"tested_on": "sandbur", "experiment": "Test D sandbur", "assay_type": "in vivo, Cenchrus echinatus", "conditions": "Preemergence, 0 to 100 scale", "outline": "as §1"}, "pitted morningglory": {"tested_on": "pitted morningglory", "experiment": "Test D pitted morningglory", "assay_type": "in vivo, Ipomoea lacunosa", "conditions": "Preemergence, 0 to 100 scale", "outline": "as §1"}, "[1]": {"conditions": "Rate 16 g/ha, 0 no injury, 100 complete control"}, "[2]": {"conditions": "Rate 32 g/ha, 0 no injury, 100 complete control"}, "[3]": {"conditions": "Rate 64 g/ha, 0 no injury, 100 complete control"}, "[4]": {"conditions": "Rate 125 g/ha, 0 no injury, 100 complete control"}}}
{"molecule": "CCn1c(=O)on(C(=O)N(c2ccc(Cl)cc2)C(C)C)c1=O", "note": "[Compound 108]", "values": [{"measurement": "Plant response rating, Johnsongrass", "setting": "Johnson grass; [1]", "result": 0}, {"measurement": "Plant response rating, Johnsongrass", "setting": "Johnson grass; [2]", "result": 20}, {"measurement": "Plant response rating, Johnsongrass", "setting": "Johnson grass; [3]", "result": 20}, {"measurement": "Plant response rating, Johnsongrass", "setting": "Johnson grass; [4]", "result": 40}, {"measurement": "Plant response rating, Johnsongrass", "setting": "Johnson grass; Rate 250 g/ha", "result": 85}, {"measurement": "Plant response rating, Johnsongrass", "setting": "Johnson grass; Rate 500 g/ha", "result": 85}, {"measurement": "Plant response rating, Alexandergrass", "setting": "Alexandergrass; [1]", "result": 20}, {"measurement": "Plant response rating, Alexandergrass", "setting": "Alexandergrass; [2]", "result": 20}, {"measurement": "Plant response rating, Alexandergrass", "setting": "Alexandergrass; [3]", "result": 85}, {"measurement": "Plant response rating, Alexandergrass", "setting": "Alexandergrass; [4]", "result": 98}, {"measurement": "Plant response rating, Alexandergrass", "setting": "Alexandergrass; Rate 250 g/ha", "result": 100}, {"measurement": "Plant response rating, Alexandergrass", "setting": "Alexandergrass; Rate 500 g/ha", "result": 100}, {"measurement": "Plant response rating, Guineagrass", "setting": "guineagrass; [1]", "result": 0}, {"measurement": "Plant response rating, Guineagrass", "setting": "guineagrass; [2]", "result": 85}, {"measurement": "Plant response rating, Guineagrass", "setting": "guineagrass; [3]", "result": 98}, {"measurement": "Plant response rating, Guineagrass", "setting": "guineagrass; [4]", "result": 98}, {"measurement": "Plant response rating, Guineagrass", "setting": "guineagrass; Rate 250 g/ha", "result": 100}, {"measurement": "Plant response rating, Guineagrass", "setting": "guineagrass; Rate 500 g/ha", "result": 100}, {"measurement": "Plant response rating, Goosegrass", "setting": "goosegrass; [1]", "result": 60}, {"measurement": "Plant response rating, Goosegrass", "setting": "goosegrass; [2]", "result": 85}, {"measurement": "Plant response rating, Goosegrass", "setting": "goosegrass; [3]", "result": 98}, {"measurement": "Plant response rating, Goosegrass", "setting": "goosegrass; [4]", "result": 100}, {"measurement": "Plant response rating, Goosegrass", "setting": "goosegrass; Rate 250 g/ha", "result": 100}, {"measurement": "Plant response rating, Goosegrass", "setting": "goosegrass; Rate 500 g/ha", "result": 100}, {"measurement": "Plant response rating, Surinam grass", "setting": "surinam grass; [1]", "result": 0}, {"measurement": "Plant response rating, Surinam grass", "setting": "surinam grass; [2]", "result": 65}, {"measurement": "Surinam grass plant response rating", "setting": "surinam grass; [3]", "result": 65}, {"measurement": "Surinam grass plant response rating", "setting": "surinam grass; [4]", "result": 98}, {"measurement": "Plant response rating, Surinam grass", "setting": "surinam grass; Rate 250 g/ha", "result": 98}, {"measurement": "Plant response rating, Surinam grass", "setting": "surinam grass; Rate 500 g/ha", "result": 100}, {"measurement": "Plant response rating, Spanishneedles", "setting": "Spanishneedles; [1]", "result": 0}, {"measurement": "Plant response rating, Spanishneedles", "setting": "Spanishneedles; [2]", "result": 0}, {"measurement": "Spanishneedles plant response rating", "setting": "Spanishneedles; [3]", "result": 0}, {"measurement": "Spanishneedles plant response rating", "setting": "Spanishneedles; [4]", "result": 0}, {"measurement": "Plant response rating, Spanishneedles", "setting": "Spanishneedles; Rate 500 g/ha", "result": 20}, {"measurement": "Plant response rating, Large crabgrass", "setting": "large crabgrass; [1]", "result": 85}, {"measurement": "Plant response rating, Large crabgrass", "setting": "large crabgrass; [2]", "result": 100}, {"measurement": "Plant response rating, Large crabgrass", "setting": "large crabgrass; [3]", "result": 100}, {"measurement": "Plant response rating, Large crabgrass", "setting": "large crabgrass; [4]", "result": 100}, {"measurement": "Plant response rating, Large crabgrass", "setting": "large crabgrass; Rate 250 g/ha", "result": 100}, {"measurement": "Plant response rating, Large crabgrass", "setting": "large crabgrass; Rate 500 g/ha", "result": 100}, {"measurement": "Plant response rating, Com. groundsel", "setting": "common groundsel; [1]", "result": 65}, {"measurement": "Plant response rating, Com. groundsel", "setting": "common groundsel; [2]", "result": 75}, {"measurement": "Plant response rating, Com. groundsel", "setting": "common groundsel; [3]", "result": 85}, {"measurement": "Plant response rating, Com. groundsel", "setting": "common groundsel; [4]", "result": 100}, {"measurement": "Plant response rating, Com. groundsel", "setting": "common groundsel; Rate 250 g/ha", "result": 100}, {"measurement": "Plant response rating, Com. groundsel", "setting": "common groundsel; Rate 500 g/ha", "result": 100}, {"measurement": "Plant response rating, Tall Mallow", "setting": "tall mallow; [1]", "result": 0}, {"measurement": "Plant response rating, Tall Mallow", "setting": "tall mallow; [2]", "result": 0}, {"measurement": "Tall Mallow plant response rating", "setting": "tall mallow; [3]", "result": 0}, {"measurement": "Tall Mallow plant response rating", "setting": "tall mallow; [4]", "result": 10}, {"measurement": "Plant response rating, Tall Mallow", "setting": "tall mallow; Rate 250 g/ha", "result": 45}, {"measurement": "Plant response rating, Tall Mallow", "setting": "tall mallow; Rate 500 g/ha", "result": 98}, {"measurement": "Plant response rating, Bermudagrass", "setting": "bermuda-grass; [1]", "result": 85}, {"measurement": "Plant response rating, Bermudagrass", "setting": "bermuda-grass; [2]", "result": 98}, {"measurement": "Plant response rating, Bermudagrass", "setting": "bermuda-grass; [3]", "result": 100}, {"measurement": "Plant response rating, Bermudagrass", "setting": "bermuda-grass; [4]", "result": 100}, {"measurement": "Plant response rating, Bermudagrass", "setting": "bermuda-grass; Rate 250 g/ha", "result": 100}, {"measurement": "Plant response rating, Bermudagrass", "setting": "bermuda-grass; Rate 500 g/ha", "result": 100}, {"measurement": "Plant response rating, Purple nutsedge", "setting": "purple nutsedge; [1]", "result": 0}, {"measurement": "Plant response rating, Purple nutsedge", "setting": "purple nutsedge; [2]", "result": 0}, {"measurement": "Purple nutsedge plant response rating", "setting": "purple nutsedge; [3]", "result": 0}, {"measurement": "Purple nutsedge plant response rating", "setting": "purple nutsedge; [4]", "result": 10}, {"measurement": "Plant response rating, Purple nutsedge", "setting": "purple nutsedge; Rate 250 g/ha", "result": 10}, {"measurement": "Plant response rating, Purple nutsedge", "setting": "purple nutsedge; Rate 500 g/ha", "result": 30}, {"measurement": "Plant response rating, C. purslane", "setting": "common pursiane; Rate 16 g/ha; Preemergence; 0 to 100 scale, 0 no injury, 100 complete control", "result": 0}, {"measurement": "Plant response rating, C. purslane", "setting": "common pursiane; Rate 32 g/ha; Preemergence; 0 to 100 scale, 0 no injury, 100 complete control", "result": 0}, {"measurement": "Plant response rating, C. purslane", "setting": "common pursiane; Rate 64 g/ha, Preemergence; 0 to 100 scale, 0 no injury, 100 complete control", "result": 0}, {"measurement": "Plant response rating, C. purslane", "setting": "common pursiane; Rate 125 g/ha, Preemergence; 0 to 100 scale, 0 no injury, 100 complete control", "result": 0}, {"measurement": "Plant response rating, C. purslane", "setting": "common pursiane; Rate 250 g/ha; Preemergence; 0 to 100 scale", "result": 0}, {"measurement": "Plant response rating, C. purslane", "setting": "common pursiane; Rate 500 g/ha, Preemergence; 0 to 100 scale", "result": 80}, {"measurement": "Plant response rating, C. purslane", "setting": "common pursiane; Rate 500 g/ha; Preemergence; 0 to 100 scale", "result": 0}, {"measurement": "Plant response rating, Dallisgrass", "setting": "dallisgrass; [1]", "result": 40}, {"measurement": "Plant response rating, Dallisgrass", "setting": "dallisgrass; [2]", "result": 50}, {"measurement": "Plant response rating, Dallisgrass", "setting": "dallisgrass; [3]", "result": 100}, {"measurement": "Plant response rating, Dallisgrass", "setting": "dallisgrass; [4]", "result": 100}, {"measurement": "Plant response rating, Dallisgrass", "setting": "dallisgrass; Rate 250 g/ha", "result": 100}, {"measurement": "Plant response rating, Dallisgrass", "setting": "dallisgrass; Rate 500 g/ha", "result": 100}, {"measurement": "Plant response rating, Sandbur", "setting": "sandbur; [1]", "result": 0}, {"measurement": "Plant response rating, Sandbur", "setting": "sandbur; [2]", "result": 0}, {"measurement": "Sandbur plant response rating", "setting": "sandbur; [3]", "result": 30}, {"measurement": "Sandbur plant response rating", "setting": "sandbur; [4]", "result": 98}, {"measurement": "Plant response rating, Sandbur", "setting": "sandbur; Rate 250 g/ha", "result": 98}, {"measurement": "Plant response rating, Sandbur", "setting": "sandbur; Rate 500 g/ha", "result": 100}, {"measurement": "Plant response rating, P. morninglory", "setting": "pitted morningglory; [1]", "result": 0}, {"measurement": "Plant response rating, P. morninglory", "setting": "pitted morningglory; [2]", "result": 0}, {"measurement": "Plant response rating, P. morninglory", "setting": "pitted morningglory; [3]", "result": 0}, {"measurement": "Plant response rating, P. morninglory", "setting": "pitted morningglory; [4]", "result": 0}, {"measurement": "Plant response rating, P. morninglory", "setting": "pitted morningglory; Rate 250 g/ha", "result": 0}, {"measurement": "Plant response rating, P. morninglory", "setting": "pitted morningglory; Rate 500 g/ha", "result": 0}]}
